Source: US8476265B2, “Compounds-801” (AstraZeneca AB, priority 2010, dated 2013)

Assays:
[1] = target: T1, human muscarinic acetylcholine M3 receptor (Homo sapiens, UniProt P20309); test: Muscarinic 3 receptor binding assay ([3H]NMS competition, SPA), pIC50; conditions: [3H]NMS 0.1 nM, CHO-K1 cell membranes expressing human M3 receptor
T1 construct: expressed in transfected cells; host or cells: CHO-K1 (Chinese Hamster Ovary) cell membranes
Outline: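 SPA beads precoated with human M3-expressing CHO-K1 membranes were incubated 16 h at room temperature with serially diluted compound and 0.1 nM [3H]NMS (pH 7.4 HEPES buffer, MgCl2, BSA, 1% DMSO). Atropine (1 μM) defined non-specific binding; pIC50 is the 50% reduction in specific binding.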

[2] = target: T2, Adrenergic β2 (Homo sapiens, UniProt P07550); test: Adrenergic β2 mediated cAMP production in H292 cells (AlphaScreen), concentration response; format: cell-based; conditions: for EC50: 60 min, 300 μM rolipram, read-out: β2 pEC50 (converted); for β2 Intrinsic Activity: fraction relative to the maximum activity determined for formoterol
T2 construct: Adherent H292 cells are removed from tissue culture flasks by treatment with Accutase™ cell detachment solution; endogenous in cells; host or cells: H292 cells
T2 sequence (P07550 whole entry): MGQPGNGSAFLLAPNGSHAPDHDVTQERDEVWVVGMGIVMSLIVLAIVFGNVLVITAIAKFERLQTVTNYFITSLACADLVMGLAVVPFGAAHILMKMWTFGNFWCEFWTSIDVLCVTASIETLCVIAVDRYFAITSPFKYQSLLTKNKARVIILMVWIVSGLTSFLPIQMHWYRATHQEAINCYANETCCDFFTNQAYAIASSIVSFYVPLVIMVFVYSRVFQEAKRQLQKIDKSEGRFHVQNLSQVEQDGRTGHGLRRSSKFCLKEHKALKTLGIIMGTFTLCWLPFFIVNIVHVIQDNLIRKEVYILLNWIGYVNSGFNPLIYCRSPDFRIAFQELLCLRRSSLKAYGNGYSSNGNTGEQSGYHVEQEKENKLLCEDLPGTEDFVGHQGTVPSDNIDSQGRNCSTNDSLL
Outline: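 Intracellular cAMP in lysates read by AlphaScreen, calibrated with cAMP standards; curves fitted for pEC50, with intrinsic activity as a fraction of formoterol's maximum. Agonist exposure 60 min at room temperature after 10 min rolipram (300 μM final), 1% DMSO, HEPES-buffered HBSS pH 7.4.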

T1 sequence (P20309 whole entry): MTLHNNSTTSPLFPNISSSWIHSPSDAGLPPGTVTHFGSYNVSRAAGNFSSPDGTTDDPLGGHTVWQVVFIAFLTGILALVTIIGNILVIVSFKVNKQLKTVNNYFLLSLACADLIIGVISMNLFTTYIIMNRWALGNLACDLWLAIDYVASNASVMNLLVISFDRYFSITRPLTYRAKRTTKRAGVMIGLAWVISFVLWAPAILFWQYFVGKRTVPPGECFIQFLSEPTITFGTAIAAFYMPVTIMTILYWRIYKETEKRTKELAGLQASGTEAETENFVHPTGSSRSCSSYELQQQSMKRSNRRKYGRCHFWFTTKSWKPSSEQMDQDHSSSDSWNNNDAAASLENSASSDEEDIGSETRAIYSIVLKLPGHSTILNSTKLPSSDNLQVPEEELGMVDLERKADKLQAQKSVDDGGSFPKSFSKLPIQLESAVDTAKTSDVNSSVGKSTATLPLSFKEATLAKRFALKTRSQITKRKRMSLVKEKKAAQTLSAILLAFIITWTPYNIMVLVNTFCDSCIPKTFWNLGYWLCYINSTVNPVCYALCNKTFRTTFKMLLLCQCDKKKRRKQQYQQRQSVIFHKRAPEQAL

SMILES | IC50 [1] [nM] | EC50 [2] [nM] | β2 Intrinsic Activity [2]
CCCCN(CCNCCc1ccc(O)c2c1OCC(=O)N2)C(=O)CCOCCc1ccc(CCN2CCC3(CC2)CN(C(=O)c2csc(C(C)C)n2)CCO3)cc1 [Example 4, N-Butyl-N-(2-(2-(5-hydroxy-3-oxo-3,4-dihydro-2H-benzo[b][1,4]oxazin-8-yl)ethylamino)ethyl)-3-(4-(2-(4-(2-isopropylthiazole-4-carbonyl)-1-oxa-4,9-diazaspiro[5.5]undecan-9-yl)ethyl)phenethoxy)propanamide ditrifluoroacetate] | 0.794 | 25.1 | 0.8
CCN(CCNCCc1ccc(O)c2[nH]c(=O)sc12)C(=O)CCOCCc1cccc(CN2CCC3(CC2)CN(C(=O)c2csc(C(C)C)n2)CCO3)c1Cl [Example 28, 3-(2-Chloro-3-((4-(2-isopropylthiazole-4-carbonyl)-1-oxa-4,9-diazaspiro[5.5]undecan-9-yl)methyl)phenethoxy)-N-ethyl-N-(2-(2-(4-hydroxy-2-Oxo-2,3-dihydrobenzo[d]thiazol-7-yl)ethylamino)ethyl)propanamide ditrifluoroacetate] | 2 | 12.6 | 0.8
CC(C)c1nc(C(=O)N2CCOC3(CCN(Cc4cccc(CCOCCC(=O)N(CCNCCc5ccc(O)c6c5OCC(=O)N6)CCC(C)(C)C)c4F)CC3)C2)cs1 [Example 17, N-(3,3-Dimethylbutyl)-3-(2-fluoro-3-((4-(2-isopropylthiazole-4-carbonyl)-1-oxa-4,9-diazaspiro[5.5]undecan-9-yl)methyl)phenethoxy)-N-(2-(2-(5-hydroxy-3-oxo-3,4-dihydro-2H-benzo[b][1,4]oxazin-8-yl)ethylamino)ethyl)propanamide ditrifluoroacetate] | 0.316 | 50.1 | 1.0
CCCC[C@@H](C)N(CCNCCc1ccc(O)c2c1OCC(=O)N2)C(=O)CCOCCc1cccc(CN2CCC3(CC2)CN(C(=O)c2csc(C(C)C)n2)CCO3)c1F [Example 18, (R)-3-(2-Fluoro-3-((4-(2-isopropylthiazole-4-carbonyl)-1-oxa-4,9-diazaspiro[5.5]undecan-9-yl)methyl)phenethoxy)-N-(hexan-2-yl)-N-(2-(2-(5-hydroxy-3-oxo-3,4-dihydro-2H-benzo[b][1,4]oxazin-8-yl)ethylamino)ethyl)propanamide ditrifluoroacetate] | 0.398 | 20 | 1.0

Further lines, results first:

IC50 [1] [nM] | EC50 [2] [nM] | β2 Intrinsic Activity [2] | SMILES
0.794 | 10 | 0.9 | CC[C@@H](C)N(CCNCCc1ccc(O)c2c1OCC(=O)N2)C(=O)CCOCCc1cccc(CCN2CCC3(CC2)CN(C(=O)c2csc(C(C)C)n2)CCO3)c1 [Example 37, (R)—N-sec-Butyl-N-(2-(2-(5-hydroxy-3-oxo-3,4-dihydro-2H-benzo[b][1,4]oxazin-8-yl)ethylamino)ethyl)-3-(3-(2-(4-(2-isopropylthiazole-4-carbonyl)-1-oxa-4,9-diazaspiro[5.5]undecan-9-yl)ethyl)phenethoxy)propanamide ditrifluoroacetate]
0.398 | 15.8 | 0.9 | CCCCN(CCNCCc1ccc(O)c2c1OCC(=O)N2)C(=O)CCOCCc1cccc(CN2CCC3(CC2)CN(C(=O)c2csc(CC)n2)CCO3)c1Cl [Example 32, N-Butyl-3-(2-chloro-3-((4-(2-ethylthiazole-4-carbonyl)-1-oxa-4,9-diazaspiro[5.5]undecan-9-yl)methyl)phenethoxy)-N-(2-(2-(5-hydroxy-3-oxo-3,4-dihydro-2H-benzo[b][1,4]oxazin-8-yl)ethylamino)ethyl)propanamide ditrifluoroacetate]
0.501 | 251 | 1.0 | CC(C)c1ccc(C(=O)N2CCOC3(CCN(Cc4cccc(CCOCCC(=O)N(CCNCCc5ccc(O)c6c5OCC(=O)N6)C5CCCCC5)c4)CC3)C2)s1 [Example 90, N-Cyclohexyl-N-(2-(2-(5-hydroxy-3-oxo-3,4-dihydro-2H-benzo[b][1,4]oxazin-8-yl)ethylamino)ethyl)-3-(3-((4-(5-isopropylthiophene-2-carbonyl)-1-oxa-4,9-diazaspiro[5.5]undecan-9-yl)methyl)phenethoxy)propanamide]
